Assay results reported in patent US10144746B2 (GLOBAL BLOOD THERAPEUTICS, INC., priority 2015, dated 2018).

Each molecule was assayed against Human plasma kallikrein (Homo sapiens (Human), UniProt P03952) (assay: In vitro plasma kallikrein inhibition assay (chromogenic substrate D-Pro-Phe-Arg-pNa, absorbance at 405 nm, IC50 determination)). Conditions: read-out: KLKB1 pIC50 (converted).
Human plasma kallikrein, sequence (P03952 391-638): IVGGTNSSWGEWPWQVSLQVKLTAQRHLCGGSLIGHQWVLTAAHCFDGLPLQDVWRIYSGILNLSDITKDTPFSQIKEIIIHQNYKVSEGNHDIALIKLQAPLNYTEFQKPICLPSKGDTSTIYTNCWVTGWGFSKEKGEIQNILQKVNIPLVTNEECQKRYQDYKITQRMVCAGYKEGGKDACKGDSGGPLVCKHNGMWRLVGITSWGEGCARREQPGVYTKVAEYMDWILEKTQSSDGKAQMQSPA
Human plasma kallikrein, sequence (P03952 20-390 partner): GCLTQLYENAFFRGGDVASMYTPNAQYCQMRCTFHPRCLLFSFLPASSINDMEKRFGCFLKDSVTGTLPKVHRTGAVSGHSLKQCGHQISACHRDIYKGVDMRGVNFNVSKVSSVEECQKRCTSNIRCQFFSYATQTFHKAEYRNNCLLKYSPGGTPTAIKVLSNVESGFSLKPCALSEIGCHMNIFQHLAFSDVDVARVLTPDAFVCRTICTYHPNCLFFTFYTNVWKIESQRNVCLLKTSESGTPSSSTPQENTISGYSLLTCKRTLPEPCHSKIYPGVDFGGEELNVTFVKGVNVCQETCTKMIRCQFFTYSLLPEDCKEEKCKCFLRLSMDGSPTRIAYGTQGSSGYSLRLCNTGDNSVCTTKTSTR
Type: biochemical
`Cc1cc(N)nc(C)c1CNC(=O)c1ccc2c(c1)[C@@H]1O[C@H]2c2ccc(CN3CCCN(C)C3=O)cc21` (single isomer, unassigned) [Example 235] was tested, and the IC50 was 0.0129 µM.
`N=C(N)c1ccc(CNC(=O)c2ccc3c(c2)[C@@H]2O[C@H]3c3ccc(N4CCCC4)cc32)cc1` (single isomer, unassigned) [Example 236] gave an IC50 of 0.002 µM.
Molecule `Nc1noc2c(CNC(=O)c3ccc4c(c3)[C@@H]3O[C@H]4c4ccc(-c5ccccc5F)cc43)cccc12` (single isomer, unassigned) [Example 237] has an IC50 of 10 µM.
`N=C(N)c1ccc(CNC(=O)c2ccc3c(c2)[C@@H]2O[C@H]3c3ccccc32)cc1` (single isomer, unassigned) [Example 238] showed an IC50 of 0.324 µM.
With `CCN(c1ccc2c(c1)[C@H]1O[C@@H]2c2ccc(C(=O)NCc3c(C)cc(N)nc3C)cc21)c1ccccc1F` (single isomer, unassigned) [Example 239] the IC50 was 0.234 µM.
In the case of `Cc1c(CNC(=O)c2ccc3c(c2)[C@@H]2O[C@H]3c3ccc(-c4ccccc4F)cc32)cnc(N)c1C` (single isomer, unassigned) [Example 242], the IC50 is reported as 2.75 µM.
`N=C(N)c1ccc(NC(=O)c2ccc3c(c2)[C@@H]2O[C@H]3c3ccc(-c4ccc(F)cc4F)cc32)cc1` (single isomer, unassigned) [Example 244] was tested, and the IC50 was 10.7 µM.
`Nc1noc2ccc(NC(=O)c3ccc4c(c3)[C@@H]3O[C@H]4c4ccc(-c5ccc(F)cc5F)cc43)cc12` (single isomer, unassigned) [Example 245] was tested, and the IC50 was 10 µM.
In the case of `Cc1nc(N)cc(C(F)(F)F)c1CNC(=O)c1ccc2c(c1)[C@@H]1O[C@H]2c2ccc(-c3ccc(F)cc3F)cc21` (single isomer, unassigned) [Example 246], the IC50 is reported as 10.7 µM.
`Cc1nc(N)cc(C2CCOCC2)c1CNC(=O)c1ccc2c(c1)[C@@H]1O[C@H]2c2ccc(-c3ccc(F)cc3F)cc21` (single isomer, unassigned) [Example 247] was tested, and the IC50 was 0.00501 µM.
`CCc1cc(N)nc(CC)c1CNC(=O)c1ccc2c(c1)[C@@H]1O[C@H]2c2ccc(-c3ccc(F)cc3F)cc21` (single isomer, unassigned) [Example 248] gave an IC50 of 2.57 µM.
`Cc1cc(N)nc(C)c1CNC(=O)c1ccc2c(c1)[C@@H]1O[C@H]2c2ccc(N(c3cccc(F)c3)C(C)C)cc21` (single isomer, unassigned) [Example 249] gave an IC50 of 0.0933 µM.
Molecule `CCCN(c1cccc(F)c1)c1ccc2c(c1)[C@H]1O[C@@H]2c2ccc(C(=O)NCc3c(C)cc(N)nc3C)cc21` (single isomer, unassigned) [Example 250] has an IC50 of 0.0331 µM.
`Cc1cc(N)nc(C)c1CNC(=O)c1ccc2c(c1)[C@@H]1O[C@H]2c2ccc(-c3cn4ccccc4n3)cc21` (single isomer, unassigned) [Example 252] gave an IC50 of 0.0933 µM.
For `COc1ccc(CNC(=O)c2ccc3c(c2)[C@@H]2O[C@H]3c3ccc(-c4ccccc4F)cc32)cc1` (single isomer, unassigned) [Example 253], the IC50 was 100 µM.
In the case of `Cc1cc(N)nc(C)c1CNC(=O)c1ccc2c(c1)[C@@H]1O[C@H]2c2ccc(Cc3ccccc3)cc21` (single isomer, unassigned) [Example 254], the IC50 is reported as 0.0191 µM.
`N=C(N)c1cc(F)c(CNC(=O)c2ccc3c(c2)[C@@H]2O[C@H]3c3ccc(-c4ccc(F)cc4F)cc32)c(F)c1` (single isomer, unassigned) [Example 256] gave an IC50 of 0.000759 µM.
For `Nc1cc(C2CC2)c(CNC(=O)c2ccc3c(c2)[C@@H]2O[C@H]3c3ccc(-c4ccc(F)cc4F)cc32)c(C2CC2)n1` (single isomer, unassigned) [Example 257], the IC50 was 200 µM.
For `N=C(N)c1cccc(NC(=O)c2ccc3c(c2)[C@@H]2O[C@H]3c3ccc(-c4ccc(F)cc4F)cc32)c1` (single isomer, unassigned) [Example 258], the IC50 was 10 µM.
With `N=C(N)c1ccc(CNC(=O)c2ccc3c(c2)[C@@H]2O[C@H]3c3ccc(C4CC4)cc32)cc1` (single isomer, unassigned) [Example 259] the IC50 was 0.002 µM.
Molecule `Cc1cc(N)nc(C)c1CNC(=O)c1ccc2c(c1)[C@@H]1O[C@H]2c2ccc(N(c3cccc(F)c3)S(C)(=O)=O)cc21` (single isomer, unassigned) [Example 260] has an IC50 of 0.186 µM.
